In patent US9255103B2, “Substituted pyrazolo[1,5-a]pyrazines as mGluR5 receptor modulators” (Vanderbilt University, priority 2010, dated 2016):
Like-named read-outs stand apart in the source and are kept apart here.

Experiments:
human mGluR5a receptor = human mGluR5a receptor (Homo sapiens, UniProt P41594); assay: Cell-based functional Ca2+ mobilization assay (FDSS), potentiation of glutamate EC20 response in H10H cell line; conditions: for Emax: percent of maximal glutamate response, human mGluR5 HEK cells; for pEC50 / EC50: HEK cells transfected with human mGluR5 (H10H), presence of glutamate EC20; for pEC50: concentration in mol/L; for EC50: read-out: EC50
Procedure: Human embryonic kidney (HEK) cells transfected with rat mGluR5 were plated in clear bottom assay plates for assay in a Functional Drug Screening System (FDSS). In the alternative assay, HEK cells transfected with human mGluR5 (H10H cell line) were plated for assay in the FDSS. […] The cells were loaded with a Ca^2+-sensitive fluorescent dye (e.g., Fluo-4), and the plates were washed and placed in the FDSS instrument. After establishment of a fluorescence baseline for twelve seconds, the compounds of the present invention were added to the cells, and the response in cells was measured. Alternatively, in various further aspects, after establishment of a fluorescence baseline for about three seconds, the compounds of the present invention were added to the cells, and the response in cells was measured. Five minutes later, an mGluR5 agonist (e.g., glutamate, 3,5-dihydroxyphenylglycine, or quisqualate) was added to the cells, and the response of the cells was measured.
The above described assay operated in two modes. In the first mode, a range of concentrations of the present compounds were added to cells, followed by a single fixed concentration of agonist. If a compound acted as a potentiator, an EC50 value for potentiation and a maximum extent of potentiation by the compound at this concentration of agonist was determined by non-linear curve fitting. In the second mode, several fixed concentrations of the present compounds were added to various wells on a plate, followed by a range of concentrations of agonist for each concentration of present compound; the EC50 values for the agonist at each concentration of compound were determined by non-linear curve fitting. A decrease in the EC50 value of the agonist with increasing concentrations of the present compounds (a leftward shift of the agonist concentration-response curve) is an indication of the degree of mGluR5 potentiation at a given concentration of the present compound. An increase in the EC50 value of the agonist with increasing concentrations of the present compounds (a rightward shift of the agonist concentration-response curve) is an indication of the degree of mGluR5 antagonism at a given concentration of the present compound. The second mode also indicates whether the present compounds also affect the maximum response to mGluR5 to agonists.
The mGluR5 activity was determined using the metabotropic glutamate receptor activity assays in human embryonic kidney cells as described herein, wherein the human embryonic kidney cells were transfected with human mGluR5. The compounds in Table 1 were synthesized with methods identical or analogous to those shown herein. The requisite starting materials were commercially available, described in the literature, or readily synthesized by one skilled in the art of organic synthesis.
Human mGluR5a cDNA in pCMV6-XL6 mammalian expression plasmid was purchased from OriGene Technologies, Inc. (catalogue number SC326357) and subcloned into pcDNA3.1(−). Human embryonic kidney (HEK)293A cells were then transfected with human mGluR5a pcDNA3.1(−) using LipofectAmine2000 (Invitrogen) and monoclones were selected and tested for functional response using a Ca^2+ mobilization assay. Monoclones were named for the species (“H” for human) plus the location on the plate (e.g. “10H”).
HEK cells transfected with the human mGluR5a receptor (H10H cell line) were plated at 15,000 cells/well in clear-bottomed poly-D-lysine-coated assay plates (BD Falcon) in glutamate-glutamine-free growth medium and incubated overnight at 37° C. and 5% CO2. The following day, the growth medium was removed and the cells were washed with assay buffer containing 1× Hank's balanced salt solution (Invitrogen, Carlsbad, Calif.), 20 mM HEPES, 2.5 mM probenecid, pH 7.4 and left with 20 μL of this reagent.

male Sprague-Dawley rats = assay: Reversal of amphetamine-induced hyperlocomotion in rats; assay type: in vivo, rat; conditions: oral gavage, doses as in FIG. 4; amphetamine sulfate 1 mg/kg sc; data only in FIG. 4
Procedure: Locomotor activity was assessed as mean distance traveled (cm) in standard 16×16 photocell testing chambers measuring 43.2 cm (Length)×43.2 cm (Width)×30.5 cm (Height) (Med Associates, St. Albans, Vt.). Animals were habituated to individual activity chambers for at least 30 min prior to drug administration. Following administration of drug or vehicle, activity was recorded for a 90 minute time period. Data was expressed as the mean (±SEM) distance traveled recorded in 5 min intervals over the test period. The data was analyzed using repeated measures analysis of variance (ANOVA) followed by post-hoc testing using Dunnett's test, when appropriate. A difference was considered significant when p≦0.05. […]
The animals were habituated in Smart Open Field locomotor activity test chambers (Hamilton-Kinder, San Diego, Calif.) with 16×16 photobeams to automatically record locomotor activity for 30 min and then dosed with vehicle or test compound. […] At 60 min, all rats were injected subcutaneously with 1 mg/kg amphetamine or vehicle and then monitored for an additional 60 min. Animals are monitored for a total of 120 minutes. Data are expressed as changes in ambulation defined as total number of beam breaks per 5 min periods.
The data for the dose-response studies were analyzed by a between-group analysis of variance. […]

[1] = HEK293, maximum average response at a single concentration, read-out: Emax
[2] = maximum average response at a single concentration

Chain of human mGluR5a receptor (P41594 21-1180 isoform P41594-2 limits assumed): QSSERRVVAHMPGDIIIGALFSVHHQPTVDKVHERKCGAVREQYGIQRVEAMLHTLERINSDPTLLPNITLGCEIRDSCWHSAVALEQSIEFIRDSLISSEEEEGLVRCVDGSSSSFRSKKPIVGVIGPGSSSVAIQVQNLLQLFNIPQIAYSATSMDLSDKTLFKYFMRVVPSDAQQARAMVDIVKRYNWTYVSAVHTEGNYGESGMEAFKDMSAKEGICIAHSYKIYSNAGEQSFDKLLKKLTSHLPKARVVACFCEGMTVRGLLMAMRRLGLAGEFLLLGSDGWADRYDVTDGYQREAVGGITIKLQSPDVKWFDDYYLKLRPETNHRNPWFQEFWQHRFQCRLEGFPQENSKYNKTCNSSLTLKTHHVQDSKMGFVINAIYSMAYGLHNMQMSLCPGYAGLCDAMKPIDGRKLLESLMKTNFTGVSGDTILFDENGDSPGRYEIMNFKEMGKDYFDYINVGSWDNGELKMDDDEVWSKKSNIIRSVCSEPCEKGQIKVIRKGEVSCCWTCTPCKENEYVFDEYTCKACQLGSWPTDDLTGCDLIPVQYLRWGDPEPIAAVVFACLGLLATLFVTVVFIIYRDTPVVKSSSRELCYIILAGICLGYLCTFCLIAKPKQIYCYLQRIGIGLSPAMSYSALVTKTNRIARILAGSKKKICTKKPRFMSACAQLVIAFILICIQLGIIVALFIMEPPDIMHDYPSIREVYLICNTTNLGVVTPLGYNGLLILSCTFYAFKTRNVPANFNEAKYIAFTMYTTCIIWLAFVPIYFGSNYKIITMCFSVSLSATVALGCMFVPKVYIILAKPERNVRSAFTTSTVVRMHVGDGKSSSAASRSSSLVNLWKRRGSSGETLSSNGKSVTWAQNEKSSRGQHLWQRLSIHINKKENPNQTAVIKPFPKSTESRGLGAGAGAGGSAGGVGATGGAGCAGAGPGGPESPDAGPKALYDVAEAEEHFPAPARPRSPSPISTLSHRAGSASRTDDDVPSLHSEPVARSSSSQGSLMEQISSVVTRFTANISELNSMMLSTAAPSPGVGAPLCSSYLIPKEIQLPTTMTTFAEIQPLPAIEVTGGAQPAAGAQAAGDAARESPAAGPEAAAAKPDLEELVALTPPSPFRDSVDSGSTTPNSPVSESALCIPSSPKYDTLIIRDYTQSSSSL

## N#Cc1cc(C(=O)N2CCn3nc(COc4ccccc4)cc3C2)ccc1F [Compound 28]
other
  melting point: 133.3 °C
Human mGluR5a receptor; [1]
  Emax: 81%
Human mGluR5a receptor
  pEC50: 5.78
  EC50: 1660 nM

## O=C(c1ncccc1Cl)N1CCn2nc(COc3ccccc3)cc2C1 [Compound 29]
other
  melting point: 60 °C
Human mGluR5a receptor; [1]
  Emax: 47%
Human mGluR5a receptor
  pEC50: <5.00
  EC50: > 10000 nM

## N#Cc1cccc(C(=O)N2CCn3nc(COc4cccc(F)c4)cc3C2)c1 [Compound 30]
other
  melting point: 101.5 °C
Human mGluR5a receptor; [1]
  Emax: 59%
Human mGluR5a receptor
  pEC50: 6.48
  EC50: 331 nM

## N#Cc1cc(F)cc(C(=O)N2CCn3nc(COc4cccc(F)c4)cc3C2)c1 [Compound 31]
other
  melting point: 76.8 °C
Human mGluR5a receptor; [1]
  Emax: 54%
Human mGluR5a receptor
  pEC50: 6.77
  EC50: 170 nM

## N#Cc1ccc(C(=O)N2CCn3nc(COc4cccc(F)c4)cc3C2)cc1F [Compound 32]
other
  melting point: > 300 °C
Human mGluR5a receptor; [1]
  Emax: 23%
Human mGluR5a receptor
  pEC50: 5.75
  EC50: 1780 nM

## N#Cc1cc(C(=O)N2CCn3nc(COc4cccc(F)c4)cc3C2)ccc1F [Compound 33]
other
  melting point: 57.1 °C
Human mGluR5a receptor; [1]
  Emax: 71%
Human mGluR5a receptor
  pEC50: 5.98
  EC50: 1050 nM

## Cc1cnc(C(=O)N2CCn3nc(COc4cccc(F)c4)cc3C2)cn1 [Compound 35]
other
  melting point: 105.5 °C
Human mGluR5a receptor; [1]
  Emax: 36%
Human mGluR5a receptor
  pEC50: <4.52
  EC50: > 30200 nM

## O=C(c1ccnnc1)N1CCn2nc(COc3cccc(F)c3)cc2C1 [Compound 36]
other
  melting point: 282.6 °C
Human mGluR5a receptor; [1]
  Emax: 39%
Human mGluR5a receptor
  pEC50: <5.00
  EC50: > 10000 nM

## O=C(c1cccc(F)c1)N1CCn2nc(COc3ccc(F)cc3)cc2C1 [Compound 39]
other
  melting point: > 300 °C
Human mGluR5a receptor; [1]
  Emax: 55%
Human mGluR5a receptor
  pEC50: 6.68
  EC50: 209 nM

## CC1CN(C(=O)c2cccc(C#N)c2)Cc2cc(COc3ccccc3)nn21 (centres unmarked) [Compound 43]
other
  melting point: 88.8 °C
Human mGluR5a receptor; [1]
  Emax: 72%
Human mGluR5a receptor
  pEC50: 6.25
  EC50: 562 nM

## CC1Cn2nc(COc3ccccc3)cc2CN1C(=O)c1ccc(F)cc1 (centres unmarked) [Compound 45]
other
  melting point: 53.8 °C
Human mGluR5a receptor
  pEC50: 6.62
  EC50: 240 nM
Human mGluR5a receptor; [2]
  Emax: 75%

## CC1Cn2nc(COc3ccccc3)cc2CN1C(=O)c1ccc(F)cc1 (centres unmarked) [Compound 46]
other
  melting point: > 300 °C
Human mGluR5a receptor
  pEC50: <4.52
  EC50: > 30200 nM
Human mGluR5a receptor; [2]
  Emax: 35%

## CC1Cn2nc(COc3ccccc3)cc2CN1C(=O)c1cccc(C#N)c1 (centres unmarked) [Compound 49]
other
  melting point: > 300 °C
Human mGluR5a receptor; [1]
  Emax: 52%
Human mGluR5a receptor
  pEC50: 5.56
  EC50: 2750 nM

## CC1Cn2nc(COc3ccccc3)cc2CN1C(=O)c1cccc(C#N)c1 (centres unmarked) [Compound 50]
other
  melting point: 53.9 °C
Human mGluR5a receptor
  pEC50: 6.36
  EC50: 437 nM
Human mGluR5a receptor; [2]
  Emax: 59%

## O=C(c1ccc(F)cc1)N1CCn2nc(COc3ccccc3)c(Cl)c2C1 [Compound 55]
other
  melting point: 136 °C
Human mGluR5a receptor; [1]
  Emax: 23%
Human mGluR5a receptor
  pEC50: 5.53
  EC50: 2950 nM

## Cc1c(COc2ccccc2)nn2c1CN(C(=O)c1ccc(F)cc1)CC2 [Compound 57]
other
  melting point: 158.5 °C
Human mGluR5a receptor; [1]
  Emax: 44%
Human mGluR5a receptor
  pEC50: 5.52
  EC50: 3020 nM

## O=C(c1ccc(F)cc1)N1CCn2nc(COc3ccccc3)cc2C1 [FPPPM, (4-fluorophenyl)(2-(phenoxymethyl)-6,7-dihydropyrazolo[1,5-a]pyrazin-5(4H)-yl)methanone]
Male Sprague-Dawley rats
  reversal of amphetamine-induced hyperlocomotion: reversal of amphetamine-induced hyperlocomotion
